The source of these data is US20100056627A1, “PHARMACEUTICAL COMPOSITIONS OF ALKYL GALLATES” (priority 2006, published 2010).

One experiment concerns influenza virus B/T/1/05. The experiment can be described thus: Time course of virucidal activity at 37° C., infectivity by plaque assay in MDCK cells (FIGS. 6 to 12). The experiment is classed as cell-based. Conditions: influenza B/T/1/05, FIGS. 6 and 8. How it is done:
The experiments in FIGS. 7 to 12 were carried out at 37° C. The infectivity of viruses was determined using MDCK cells by the plaque assay method.
This virucidal activity of octyl gallate was reinforced by propyl gallate also against influenza virus A/Aichi (H3N2) in the same manner as above.

In the next experiment the test system is herpes virus (HSV-1). Nature of the experiment: Virucidal activity against HSV-1 (Tables 14, 15, FIG. 5). The experiment is classed as cell-based.
A further experiment has as its system MRSA COL strain. The experiment can be described thus: Time required for killing bacteria, octyl gallate and propyl gallate (FIG. 1). The experiment is classed as cell-based, Staphylococcus aureus. An excerpt: FIG. 1 is a graph showing shortening of the time required for killing bacteria by the concomitant use of octyl gallate and propyl gallate against MRSA COL strain.

Experiment [1] concerns influenza virus A/Aichi (H3N2). Nature of the experiment: Virucidal activity against influenza virus A/Aichi (H3N2) (Table 16). Conditions: Table 16, NaCitrate 0.90%.
Experiment [2] has as its system Candida albicans ATCC 10231. Nature of the experiment: Time required for killing mold, octyl gallate and propyl gallate (FIG. 2). The experiment is classed as cell-based. Conditions: Candida albicans ATCC 10231, FIG. 2. An excerpt: FIG. 2 is a graph showing shortening of the time required for killing mold by the concomitant use of octyl gallate and propyl gallate against Candida albicans ATCC 10231.

For another experiment, the system named is clinical isolate MRSA. The experiment can be described thus: Oxacillin MIC against MRSA with concomitant octyl gallate and short-chain alkyl gallate (β-lactam sensitivity, ILSMR effect). The experiment is classed as cell-based, Staphylococcus aureus. Conditions: Staphylococcus aureus, MRSA, 24 h, Isoamyl G 25 μg/mL; Octyl G 1.5625 μg/mL.
The subject of experiment [3] is gram-positive and gram-negative bacteria. Nature of the experiment: MIC (minimum growth inhibition concentration), 2-fold serial agar plate dilution on Mueller Hinton II Agar, with concomitant alkyl gallate and salt. Conditions: n-heptyl, n-hexyl, n-pentyl, n-butyl, isobutyl or n-propyl gallate at a concentration equal to or less than MIC.
Experiment [4] concerns Pseudomonas aeruginosa POA1. Nature of the experiment: Antimicrobial action (MIC) of lauryl gallate with isoamyl gallate or propyl gallate in 3% NaCl. The experiment is classed as cell-based. Conditions: for MIC: Pseudomonas aeruginosa, P. aoruginosa PAO1, MHA (3% NaCl).
The subject of a further experiment is influenza virus. The experiment can be described thus: Influenza virucidal activity of n-dodecyl gallate with n-hexyl gallate or n-butyl gallate (FIG. 3). The experiment is classed as cell-based. An excerpt:
FIG. 3 is a graph showing reinforcement of the influenza virucidal activity of n-dodecyl gallate by n-hexyl gallate and n-butyl gallate. The abscissa axis indicates the concentrations of n-dodecyl gallate.
The open circle in FIG. 3 indicates an influenza virucidal effect of dodecyl gallate alone.

As a reminder, the MIC is the lowest concentration found to suppress growth.

SMILES strings stand for the structures. ≈ marks a conversion by molar mass, not a printed value.

Turning to `CCCOC(=O)c1cc(O)c(O)c(O)c1` [propyl gallate], the virucidal activity alone entry with influenza virus B/T/1/05 is “low”. Moreover, the No of plaques in the experiment on herpes virus (HSV-1) (Table 14, octyl gallate 0, propyl gallate 300 mg/L, J1816 90 mg/L, Na3citrate 0.90%) stood at 0; in the experiment with herpes virus (HSV-1) (Table 14, propyl gallate 100 mg/L, J1816 30 mg/L, Na3citrate 0.90%) it was 0; in the experiment on herpes virus (HSV-1) (Table 14, propyl gallate 200 mg/L, J1816 60 mg/L, Na3citrate 0.90%) it was 0; with herpes virus (HSV-1) (Table 14, propyl gallate 300 mg/L, J1816 90 mg/L, Na3citrate 0.90%) it was 0; in the experiment on herpes virus (HSV-1) (Table 14, propyl gallate 400 mg/L, J1816 120 mg/L, Na3citrate 0.90%), 0; in the experiment on herpes virus (HSV-1) (Table 14, propyl gallate 500 mg/L, J1816 150 mg/L, Na3citrate 0.90%) it was 0. For the same molecule, the No of plaques with herpes virus (HSV-1) (Table 15, octyl gallate 0, propyl gallate 300 mg/L, J1816 0, NaCitrate 0.90%) stood at 137; in the experiment on herpes virus (HSV-1) (Table 15, propyl gallate 100 mg/L, J1816 0, NaCitrate 0.90%), 192; in the experiment on herpes virus (HSV-1) (Table 15, propyl gallate 200 mg/L, J1816 0, NaCitrate 0.90%), 139; in the experiment on herpes virus (HSV-1) (Table 15, propyl gallate 300 mg/L, J1816 0, NaCitrate 0.90%), 162; in the experiment with herpes virus (HSV-1) (Table 15, propyl gallate 400 mg/L, J1816 0, NaCitrate 0.90%) it was 102; in the experiment with herpes virus (HSV-1) (Table 15, propyl gallate 500 mg/L, J1816 0, NaCitrate 0.90%), 130. Moreover, the No of plaques in experiment [1] (octyl gallate 0, propyl gallate 300 mg/L, J1816 90 mg/L) was found to be 52; in [1] (propyl gallate 100 mg/L, J1816 30 mg/L), 84; in experiment [1] (propyl gallate 200 mg/L, J1816 60 mg/L), 87; in [1] (propyl gallate 300 mg/L, J1816 90 mg/L), 53; in [1] (propyl gallate 400 mg/L, J1816 120 mg/L), 47; in experiment [1] (propyl gallate 500 mg/L, J1816 150 mg/L), 42. Further, the bactericidal activity alone entry in the experiment on MRSA COL strain is on record as “low”. In addition, the fungicidal activity alone entry in experiment [2] is “low”.
Take `Cc1onc(-c2ccccc2)c1C(=O)N[C@@H]1C(=O)N2[C@@H]1SC(C)(C)[C@@H]2C(=O)O` [oxacillin, reference compound]: in the experiment on clinical isolate MRSA, the MIC worked out at 0.125 µg/mL.
With `CCCCCCCCCCOC(=O)c1cc(O)c(O)c(O)c1` [n-decyl gallate], the “change of MIC value by addition of shorter-chain alkyl gallate” value (shortened to “change of MIC value”) in [3] is recorded as “decreased”.
As to `CCCCCCCCCCCCOC(=O)c1cc(O)c(O)c(O)c1` [dodecyl gallate, n-dodecyl gallate], the MIC amounted to 15.6 µg/mL (≈ 46.2 µM) in experiment [4] (PAO1, 24 h, concomitant none, 24 h); 31.2 µg/mL (≈ 92.3 µM) in [4] (PAO1, 48 h, concomitant none, 48 h); 3.91 µg/mL (≈ 11.5 µM) in [4] (PAO1, 48 h, isoamyl gallate 50 μg/mL, 48 h); 0.977 µg/mL (≈ 2.89 µM) in experiment [4] (PAO1, 48 h, isoamyl gallate 75 μg/mL, 48 h); 0.488 µg/mL (≈ 1.44 µM) in [4] (PAO1, 48 h, propyl gallate 75 μg/mL, 48 h). Moreover, the “antimicrobial action of lauryl gallate” value in [4] (isoamyl gallate or propyl gallate in the presence of 3% NaCl (Table 6)) is “reinforced”. Besides, in [3], the “change of MIC value” value is “decreased”. Besides, in the experiment on influenza virus (addition of butyl gallate at a concentration without virucidal effect), the “virucidal effect of dodecyl gallate” value is “reinforced markedly”. For the same molecule, the “dodecyl gallate concentration at which no survivor was observed” value with influenza virus (coexistence of 100 μg/ml of hexyl gallate) was 20 µg/mL.
As for `CCCCCCCCCOC(=O)c1cc(O)c(O)c(O)c1` [n-nonyl gallate], in experiment [3], the “change of MIC value” value is recorded as “decreased”.
Same read-out and setting: then `CCCCCCCCCCCOC(=O)c1cc(O)c(O)c(O)c1` [n-undecyl gallate], with “decreased”.
